Read-outs that look alike come from different tables or passages of the source.
Experiments:
P. falciparum = details: cited from earlier work
[1] = tested on: P. falciparum 3D7 parasites; experiment: P. falciparum growth inhibition assay, 1-cycle (72 h treatment), SYBR DNA staining (library screen at 2 μg/mL and dose-response); type: cell-based, Plasmodium falciparum
[2] = tested on: T. gondii RH strain (RH-Tub-eYFP) tachyzoites; experiment: microbe, parasite or virus in culture; type: cell-based, Toxoplasma gondii; details: 72 h, 72 h; for percent parasite growth at 2 µg/mL: Toxoplasma gondii
[3] = tested on: P. falciparum 3D7 parasites; experiment: P. falciparum growth inhibition assay, 2-cycle (120 h treatment), delayed-death screen and dose-response; type: cell-based, Plasmodium falciparum
[4] = 48–72 h, ref Wilson et al., 2013, read-out: IC50 at 48–72 h
[5] = T. gondii, parasite screen 2 μg/mL, % growth, replicate 1, read-out: Tg_72h_%Growth_Rep1
[6] = T. gondii, parasite screen 2 μg/mL, % growth, replicate 2, read-out: Tg_72h_%Growth_Rep2
[7] = Plasmodium falciparum, 3D7; P. falciparum, 2 μg/mL, 120 h; read-out: 2) Growth (%) at 120 h
[8] = Plasmodium falciparum, 3D7, P. falciparum, 120 h, parasite screen 2 μg/mL, % growth, replicate 1, read-out: Pf_120h_%Growth_Rep1
[9] = Plasmodium falciparum, 3D7, P. falciparum, 120 h, parasite screen 2 μg/mL, % growth, replicate 2, read-out: Pf_120h_%Growth_Rep2
[10] = Plasmodium falciparum, 3D7; P. falciparum, 2 μg/mL, 72 h; read-out: 1) Growth (%) at 72 h
[11] = Plasmodium falciparum, 3D7, P. falciparum, 72 h, parasite screen 2 μg/mL, % growth, replicate 1, read-out: Pf_72h_%Growth_Rep1
[12] = Plasmodium falciparum, 3D7, P. falciparum, 72 h, parasite screen 2 μg/mL, % growth, replicate 2, read-out: Pf_72h_%Growth_Rep2
[13] = P. falciparum, growth at 72 h / growth at 120 h, 2 μg/mL
[14] = T. gondii, parasite screen at 2 μg/mL, % growth, replicate 1
[15] = T. gondii, parasite screen at 2 μg/mL, % growth, replicate 2
[16] = P. falciparum 3D7, 120 h, parasite screen at 2 μg/mL, % growth, replicate 1
[17] = P. falciparum 3D7, 120 h, parasite screen at 2 μg/mL, % growth, replicate 2
[18] = P. falciparum 3D7, 72 h, parasite screen at 2 μg/mL, % growth, replicate 1
[19] = P. falciparum 3D7, 72 h, parasite screen at 2 μg/mL, % growth, replicate 2

spiramycin
IC50 (P. falciparum; [4]): ≥ 5 µM
IC50 at more than 96 h (P. falciparum; ref Wilson et al., 2013): low nanomolar range

Micrococcin P1
IC50 (P. falciparum; within 48 h, ref Rogers et al., 1998, read-out: IC50 in P. falciparum within 48 h): 0.035 µM
IC50 ([1]; 3D7, 72 h treatment, mean ± S.D., n ≥ 3, read-out: IC50 (μM), P. falciparum): 0.02 ± 0.004 µM
IC50 ([1]; 72 h treatment, read-out: IC50, P. falciparum): < 0.2 µM

CC[C@H]1OC(=O)[C@H](C)[C@@H](O[C@H]2C[C@@](C)(OC)[C@@H](O)[C@H](C)O2)[C@H](C)[C@@H](O[C@@H]2O[C@H](C)C[C@H](N(C)C)[C@H]2O)[C@](C)(O)C[C@@H](C)/C(=N\OCOCCOC)[C@H](C)[C@@H](O)[C@]1(C)O [Roxithromycin, reference compound]
percent parasite growth at 2 µg/mL [2, 5]: 33.7%
percent parasite growth at 2 µg/mL [2, 6]: 33.3%
IC50 (P. falciparum; 48 h, ref Min et al., 2007, read-out: IC50 at 48 h): ~4 µM
IC50 (P. falciparum; increased treatment duration, ref Min et al., 2007, read-out: IC50 with increased treatment duration): 1 to 2 µM
3) Fold change (72 h/120 h) [3]: 3.6
activity at 2 µg/mL [3, 7]: 8.49%
activity at 2 µg/mL [3, 8]: 18.3%
activity at 2 µg/mL [3, 9]: -1.36%
activity at 2 µg/mL [1, 10]: 30.9%
activity at 2 µg/mL [1, 11]: 34.6%
activity at 2 µg/mL [1, 12]: 27.2%

C=C(NC(=O)C(=C)NC(=O)c1csc(C2=N[C@@H]3c4csc(n4)[C@H]4NC(=O)c5csc(n5)[C@H]([C@](C)(O)[C@@H](C)O)NC(=O)[C@H]5CSC(=N5)/C(=C/C)NC(=O)[C@H]([C@@H](C)O)NC(=O)c5csc(n5)[C@]3(CC2)NC(=O)[C@H](C)NC(=O)C(=C)NC(=O)[C@H](C)NC(=O)[C@H]([C@@H](C)CC)N[C@@H]2C=Cc3c([C@H](C)O)cc(nc3[C@H]2O)C(=O)O[C@@H]4C)n1)C(N)=O [thiostrepton, reference compound]
percent parasite growth at 2 µg/mL ([2]; T. gondii, screen at 2 μg/mL, replicate 1, read-out: Tg_72h_%Growth_Rep1): 86.7%
percent parasite growth at 2 µg/mL ([2]; T. gondii, screen at 2 μg/mL, replicate 2, read-out: Tg_72h_%Growth_Rep2): 93.6%
IC50 (P. falciparum; ref Aminake et al., 2011, Schoof et al., 2010, read-out: IC50 in Plasmodium): ~10 µM
activity at 2 µg/mL ([3]; Plasmodium falciparum, 3D7, P. falciparum, 120 h, screen at 2 μg/mL, replicate 1, read-out: Pf_120h_%Growth_Rep1): 60.6%
activity at 2 µg/mL ([3]; Plasmodium falciparum, 3D7, P. falciparum, 120 h, screen at 2 μg/mL, replicate 2, read-out: Pf_120h_%Growth_Rep2): 35.5%
activity at 2 µg/mL ([1]; Plasmodium falciparum, 3D7, P. falciparum, 72 h, screen at 2 μg/mL, replicate 1, read-out: Pf_72h_%Growth_Rep1): 56.7%
activity at 2 µg/mL ([1]; Plasmodium falciparum, 3D7, P. falciparum, 72 h, screen at 2 μg/mL, replicate 2, read-out: Pf_72h_%Growth_Rep2): 65.2%

CC[C@H]1OC(=O)[C@H](C)[C@@H](O[C@H]2C[C@@](C)(OC)[C@@H](O)[C@H](C)O2)[C@H](C)[C@@H](O[C@@H]2O[C@H](C)C[C@H](N(C)C)[C@H]2O)[C@](C)(O)C[C@@H](C)CN(C)[C@H](C)[C@@H](O)[C@]1(C)O [Azithromycin, reference compound]
percent parasite growth at 2 µg/mL ([2]; library screen at 2 μg/mL, % growth, replicate 1, read-out: Tg_72h_%Growth_Rep1): 41.8%
percent parasite growth at 2 µg/mL ([2]; library screen at 2 μg/mL, % growth, replicate 2, read-out: Tg_72h_%Growth_Rep2): 36%
IC50 (P. falciparum; [4]): ≥ 5 µM
IC50 at more than 96 h (P. falciparum; ref Wilson et al., 2013): low nanomolar range
3) Fold change (72 h/120 h) [3, 13]: 6.4
activity at 2 µg/mL [3, 7]: 8.77%
activity at 2 µg/mL ([3]; Plasmodium falciparum, 3D7, library screen at 2 μg/mL, 120 h, % growth, replicate 1, read-out: Pf_120h_%Growth_Rep1): 17.2%
activity at 2 µg/mL ([3]; Plasmodium falciparum, 3D7, library screen at 2 μg/mL, 120 h, % growth, replicate 2, read-out: Pf_120h_%Growth_Rep2): 0.35%
activity at 2 µg/mL [1, 10]: 56.2%
activity at 2 µg/mL ([1]; Plasmodium falciparum, 3D7, library screen at 2 μg/mL, 72 h, % growth, replicate 1, read-out: Pf_72h_%Growth_Rep1): 59.3%
activity at 2 µg/mL ([1]; Plasmodium falciparum, 3D7, library screen at 2 μg/mL, 72 h, % growth, replicate 2, read-out: Pf_72h_%Growth_Rep2): 53.1%

COCC(=O)N[C@@H](C(=O)N1NCCC[C@H]1C(=O)N[C@@H](Cc1ccccc1)[C@@H](O)[C@H](C)C(=O)N[C@H]1CCN(C(N)=O)C1=O)[C@H](O)C(C)C [Padanamide A]
IC50 (P. falciparum; another study, ref Cheng et al., 2015, read-out: IC50 in P. falciparum): ~0.2 µM
activity in the screen against P. falciparum ([1]; 2 μg/mL, 72 h, active = ≥80 % growth inhibition): active against P. falciparum

CCC[C@@H]1C[C@@H](C(=O)N[C@@H]([C@H]2O[C@H](SC)[C@H](O)[C@@H](O)[C@H]2O)[C@H](C)Cl)N(C)C1 [clindamycin]
IC50 (P. falciparum; [4]): ≥ 5 µM
IC50 at more than 96 h (P. falciparum; ref Wilson et al., 2013): low nanomolar range

C=C1CC[C@H]2[C@@](C)(CC[C@H]3C(C)(C)[C@@H](OC(C)=O)CC[C@]23C)[C@@H]1Cc1c(O)cc(C)oc1=O [Aszonapyrone A]
Tg_72h_%Growth_Rep1 ([2]; library screen at 2 μg/mL, % growth, replicate 1): 111.51%
Tg_72h_%Growth_Rep2 ([2]; library screen at 2 μg/mL, % growth, replicate 2): 88.05%
Pf_120h_%Growth_Rep1 ([3]; library screen at 2 μg/mL, 120 h, % growth, replicate 1): 67.56%
Pf_120h_%Growth_Rep2 ([3]; library screen at 2 μg/mL, 120 h, % growth, replicate 2): 67.36%
Pf_72h_%Growth_Rep1 ([1]; library screen at 2 μg/mL, 72 h, % growth, replicate 1): 77.27%
Pf_72h_%Growth_Rep2 ([1]; library screen at 2 μg/mL, 72 h, % growth, replicate 2): 75.32%

COc1ccc2c(c1OC)C(=O)O[C@@H]2[C@H]1c2c(cc3c(c2OC)OCO3)CCN1C [BIA-N1938]
Tg_72h_%Growth_Rep1 [2, 14]: 85.42%
Tg_72h_%Growth_Rep2 [2, 15]: 102.99%
Pf_120h_%Growth_Rep1 [3, 16]: 166.83%
Pf_120h_%Growth_Rep2 [3, 17]: 79.12%
Pf_72h_%Growth_Rep1 [1, 18]: 84.86%
Pf_72h_%Growth_Rep2 [1, 19]: 78.38%

Cc1cc(O)cc(O)c1C(=O)O [BIA-O1657]
Tg_72h_%Growth_Rep1 [2, 14]: 114.94%
Tg_72h_%Growth_Rep2 [2, 15]: 95.01%
Pf_120h_%Growth_Rep1 [3, 16]: 95.39%
Pf_120h_%Growth_Rep2 [3, 17]: 131.31%
Pf_72h_%Growth_Rep1 [1, 18]: 83.41%
Pf_72h_%Growth_Rep2 [1, 19]: 79.75%

CCC(C=CC1OC(=O)C=CC1C)=CC(C)CC=CC(C)=CC(C)C(=O)C(C)C(O)C(C)CC(C)=CC(=O)O (centres unmarked) [BIA-L1046]
Tg_72h_%Growth_Rep1 ([2]; T. gondii RH, library screen at 2 μg/mL, % growth, replicate 1): 1.37%
Tg_72h_%Growth_Rep2 ([2]; T. gondii RH, library screen at 2 μg/mL, % growth, replicate 2): 0.53%
Pf_120h_%Growth_Rep1 ([3]; P. falciparum 3D7, 120 h, library screen at 2 μg/mL, % growth, replicate 1): 2.03%
Pf_120h_%Growth_Rep2 ([3]; P. falciparum 3D7, 120 h, library screen at 2 μg/mL, % growth, replicate 2): 15.00%
Pf_72h_%Growth_Rep1 ([1]; P. falciparum 3D7, 72 h, library screen at 2 μg/mL, % growth, replicate 1): 6.41%
Pf_72h_%Growth_Rep2 ([1]; P. falciparum 3D7, 72 h, library screen at 2 μg/mL, % growth, replicate 2): 2.57%

CC[C@H]1OC(=O)[C@H](C)[C@@H](O[C@H]2C[C@@](C)(OC)[C@@H](O)[C@H](C)O2)[C@H](C)[C@@H](O[C@@H]2O[C@H](C)C[C@H](N(C)C)[C@H]2O)[C@](C)(O)C[C@@H](C)C(=O)[C@H](C)[C@H]2OC(=O)O[C@@]21C [Davercin, reference compound]
Tg_72h_%Growth_Rep1 ([2]; T. gondii, screen at 2 μg/mL, replicate 1): 45.64%
Tg_72h_%Growth_Rep2 ([2]; T. gondii, screen at 2 μg/mL, replicate 2): 28.61%
2) Growth (%) at 120 h ([3]; P. falciparum, 2 μg/mL, 120 h): 13.05%
Pf_120h_%Growth_Rep1 ([3]; P. falciparum, 120 h, screen at 2 μg/mL, replicate 1): 17.41%
Pf_120h_%Growth_Rep2 ([3]; P. falciparum, 120 h, screen at 2 μg/mL, replicate 2): 8.68%
3) Fold change (72 h/120 h) [3, 13]: 4.8
1) Growth (%) at 72 h ([1]; P. falciparum, 2 μg/mL, 72 h): 62.94%
Pf_72h_%Growth_Rep1 ([1]; P. falciparum, 72 h, screen at 2 μg/mL, replicate 1): 70.33%
Pf_72h_%Growth_Rep2 ([1]; P. falciparum, 72 h, screen at 2 μg/mL, replicate 2): 55.54%

CCCC[C@@]1(OC(=O)CCC(=O)O)CC[C@]2(CC[C@H](C)[C@@H](C/C=C(C)/C=C/[C@H](O)[C@@H](C)/C=C/C(=O)O)O2)O[C@H]1/C=C/C(C)=C/C(=O)O [Reveromycin A]
percent parasite growth at 2 µg/mL [2, 5]: 119%
percent parasite growth at 2 µg/mL [2, 6]: 88.8%
activity at 2 µg/mL [3, 8]: 69.8%
activity at 2 µg/mL [3, 9]: 88.5%
activity at 2 µg/mL [1, 11]: 75.9%
activity at 2 µg/mL [1, 12]: 65.4%
